Measurements: patent US11713344B2 (DONG-A ST CO., LTD., priority 2017, dated 2023)
pEC50: −log10 of the molar value.

How the values were obtained:
Human GLP-1 receptors = Human GLP-1 receptors (Homo sapiens, UniProt P43220); assay: GLP-1 receptor activation assay (CRE-luciferase reporter, CHO-K1)
Experimental: Then, the resulting increased luciferase activity was evaluated as a measurement of the effect on each receptor activation.
After 3 hours of transfection, medium was exchanged to Alpha Minimal Essential Medium (α-MEM) comprising 10% fetal bovine serum (FBS). Next day, the medium was exchanged to α-MEM comprising the analog of the present invention and 0.1% bovine serum albumin (BSA). After 6 hours, dual luciferase assay reagent was added in the same amount as the medium in which the cells were submerged, and firefly luciferase and Renilla luciferase activities were continuously measured. Firefly luciferase activity values were corrected against Renilla luciferase activity to yield transfection efficiency.

Human glucagon receptors = Human glucagon receptors (Homo sapiens, UniProt P47871); assay: Glucagon receptor activation assay (CRE-luciferase reporter, CHO-K1)
Human glucagon receptors, sequence (P47871 26-477): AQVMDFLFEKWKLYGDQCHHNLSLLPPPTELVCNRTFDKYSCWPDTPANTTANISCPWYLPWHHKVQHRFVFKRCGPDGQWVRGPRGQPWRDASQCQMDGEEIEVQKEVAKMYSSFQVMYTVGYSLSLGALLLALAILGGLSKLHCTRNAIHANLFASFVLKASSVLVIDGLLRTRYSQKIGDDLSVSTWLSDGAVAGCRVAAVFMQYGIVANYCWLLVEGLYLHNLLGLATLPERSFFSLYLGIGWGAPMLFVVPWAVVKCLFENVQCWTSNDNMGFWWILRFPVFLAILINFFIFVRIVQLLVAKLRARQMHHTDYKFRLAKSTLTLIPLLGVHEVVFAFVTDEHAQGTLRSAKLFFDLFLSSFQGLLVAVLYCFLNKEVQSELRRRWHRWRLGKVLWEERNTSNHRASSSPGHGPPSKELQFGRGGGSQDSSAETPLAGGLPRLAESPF

Human GLP-1 receptors, sequence (P43220 24-463): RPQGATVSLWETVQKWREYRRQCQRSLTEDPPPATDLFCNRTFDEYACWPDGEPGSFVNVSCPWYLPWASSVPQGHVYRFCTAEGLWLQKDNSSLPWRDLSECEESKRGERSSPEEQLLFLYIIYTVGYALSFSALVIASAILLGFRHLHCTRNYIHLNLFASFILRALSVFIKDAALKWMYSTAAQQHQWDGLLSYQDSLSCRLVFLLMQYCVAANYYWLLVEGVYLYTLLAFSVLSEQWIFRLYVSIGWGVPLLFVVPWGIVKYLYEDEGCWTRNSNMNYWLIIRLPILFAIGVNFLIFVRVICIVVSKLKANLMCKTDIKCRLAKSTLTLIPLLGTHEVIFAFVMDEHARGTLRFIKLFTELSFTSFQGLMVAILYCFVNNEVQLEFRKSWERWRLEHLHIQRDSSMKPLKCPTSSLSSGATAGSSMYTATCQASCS

| SMILES | pEC50 (Human GLP-1 receptors) | pEC50 (Human glucagon receptors) |
| --- | --- | --- |
| CCCCCCCCCCCCCCCCCC(=O)N[C@@H](CCC(=O)NCCOCCOCC(=O)NCCOCCOCC(=O)NCCCC[C@H](NC(=O)[C@H](CC(=O)O)NC(=O)[C@H](CO)NC(=O)[C@@H](NC(=O)[C@H](Cc1ccccc1)NC(=O)[C@@H](NC(=O)CNC(=O)[C@H](CCC(N)=O)NC(=O)C(C)(C)NC(=O)[C@@H](N)Cc1c[nH]cn1)[C@@H](C)O)[C@@H](C)O)C(=O)N[C@@H](CO)C(=O)N[C@@H](CCCCN)C(=O)N[C@@H](Cc1ccc(O)cc1)C(=O)N[C@@H](CC(C)C)C(=O)N[C@@H](CC(=O)O)C(=O)N[C@H]1CCC(=O)NCCNC(=O)CC[C@@H](C(=O)N[C@@H](CC(=O)O)C(=O)N[C@@H](Cc2ccccc2)C(=O)N[C@H](C(=O)N[C@@H](CCC(N)=O)C(=O)N[C@@H](Cc2c[nH]c3ccccc23)C(=O)N[C@@H](CC(C)C)C(=O)N[C@@H](CCSC)C(=O)N[C@@H](CC(N)=O)C(=O)N[C@H](C(=O)N[C@@H](CCCCN)C(=O)O)[C@@H](C)O)C(C)C)NC(=O)[C@H](C)NC(=O)[C@H](CCCNC(=N)N)NC(=O)[C@H](CCCNC(=N)N)NC1=O)C(=O)O [Compound 30, H-HAibQGTFTSDZSKYLDERRAEDFVQWLMNTK-OH] | > 11.00 | > 11.00 |
| CCCCCCCCCCCCCCCCCC(=O)N[C@@H](CCC(=O)NCCOCCOCC(=O)NCCOCCOCC(=O)NCCCC[C@H](NC(=O)[C@H](CC(=O)O)NC(=O)[C@H](CO)NC(=O)[C@@H](NC(=O)[C@H](Cc1ccccc1)NC(=O)[C@@H](NC(=O)CNC(=O)[C@H](CCC(N)=O)NC(=O)C(C)(C)NC(=O)[C@@H](N)Cc1c[nH]cn1)[C@@H](C)O)[C@@H](C)O)C(=O)N[C@@H](CO)C(=O)N[C@@H](CCCCN)C(=O)N[C@@H](Cc1ccc(O)cc1)C(=O)N[C@@H](CC(C)C)C(=O)N[C@@H](CC(=O)O)C(=O)N[C@H]1CCCCNC(=O)c2ccc(cc2)C(=O)NCCCC[C@@H](C(=O)N[C@@H](CC(=O)O)C(=O)N[C@@H](Cc2ccccc2)C(=O)N[C@H](C(=O)N[C@@H](CCC(N)=O)C(=O)N[C@@H](Cc2c[nH]c3ccccc23)C(=O)N[C@@H](CC(C)C)C(=O)N[C@@H](CCSC)C(=O)N[C@@H](CC(N)=O)C(=O)N[C@H](C(=O)N[C@@H](CCCCN)C(=O)O)[C@@H](C)O)C(C)C)NC(=O)[C@H](C)NC(=O)[C@H](CCCNC(=N)N)NC(=O)[C@H](CCCNC(=N)N)NC1=O)C(=O)O [Compound 31, H-HAibQGTFTSDZSKYLDKRRAKDFVQWLMNTK-OH] | > 11.00 | > 11.00 |
| CCCCCCCCCCCCCCCCCC(=O)N[C@@H](CCC(=O)NCCOCCOCC(=O)NCCOCCOCC(=O)NCCCC[C@H](NC(=O)[C@H](CC(=O)O)NC(=O)[C@H](CO)NC(=O)[C@@H](NC(=O)[C@H](Cc1ccccc1)NC(=O)[C@@H](NC(=O)CNC(=O)[C@H](CCC(N)=O)NC(=O)C(C)(C)NC(=O)[C@@H](N)Cc1c[nH]cn1)[C@@H](C)O)[C@@H](C)O)C(=O)N[C@@H](CO)C(=O)N[C@@H](CCCCN)C(=O)N[C@@H](Cc1ccc(O)cc1)C(=O)N[C@@H](CC(C)C)C(=O)N[C@@H](CC(=O)O)C(=O)N[C@H]1CCCCNC(=O)C2CCN(CC2)C(=O)CC[C@@H](C(=O)N[C@@H](CC(=O)O)C(=O)N[C@@H](Cc2ccccc2)C(=O)N[C@H](C(=O)N[C@@H](CCC(N)=O)C(=O)N[C@@H](Cc2c[nH]c3ccccc23)C(=O)N[C@@H](CC(C)C)C(=O)N[C@@H](CCSC)C(=O)N[C@@H](CC(N)=O)C(=O)N[C@H](C(=O)N[C@@H](CCCCN)C(=O)O)[C@@H](C)O)C(C)C)NC(=O)[C@H](C)NC(=O)[C@H](CCCNC(=N)N)NC(=O)[C@H](CCCNC(=N)N)NC1=O)C(=O)O [Compound 32, H-HA1 bQGTFTSDZSKYLDKRRAEDFVQWLMNTK-OH] | > 11.00 | > 11.00 |
| CCCCCCCCCCCCCCCCCC(=O)N[C@@H](CCC(=O)NCCOCCOCC(=O)NCCOCCOCC(=O)NCCCC[C@H](NC(=O)[C@H](CC(=O)O)NC(=O)[C@H](CO)NC(=O)[C@@H](NC(=O)[C@H](Cc1ccccc1)NC(=O)[C@@H](NC(=O)CNC(=O)[C@H](CCC(N)=O)NC(=O)C(C)(C)NC(=O)[C@@H](N)Cc1c[nH]cn1)[C@@H](C)O)[C@@H](C)O)C(=O)N[C@@H](CO)C(=O)N[C@@H](CCCCN)C(=O)N[C@@H](Cc1ccc(O)cc1)C(=O)N[C@@H](CC(C)C)C(=O)N[C@@H](CC(=O)O)C(=O)N[C@H]1CCC(=O)NC2CCC(CC2)C(=O)NCCCC[C@@H](C(=O)N[C@@H](CC(=O)O)C(=O)N[C@@H](Cc2ccccc2)C(=O)N[C@H](C(=O)N[C@@H](CCC(N)=O)C(=O)N[C@@H](Cc2c[nH]c3ccccc23)C(=O)N[C@@H](CC(C)C)C(=O)N[C@@H](CCSC)C(=O)N[C@@H](CC(N)=O)C(=O)N[C@H](C(=O)N[C@@H](CCCCN)C(=O)O)[C@@H](C)O)C(C)C)NC(=O)[C@H](C)NC(=O)[C@H](CCCNC(=N)N)NC(=O)[C@H](CCCNC(=N)N)NC1=O)C(=O)O [Compound 33, H-HAibQGTFTSDZSKYLDERRAKDFVQWLMNTK-OH] | > 11.00 | > 11.00 |
| CCCCCCCCCCCCCCCCCC(=O)N[C@@H](CCC(=O)NCCOCCOCC(=O)NCCOCCOCC(=O)NCCCC[C@H](NC(=O)[C@H](CC(=O)O)NC(=O)[C@H](CO)NC(=O)[C@@H](NC(=O)[C@H](Cc1ccccc1)NC(=O)[C@@H](NC(=O)CNC(=O)[C@H](CCC(N)=O)NC(=O)C(C)(C)NC(=O)[C@@H](N)Cc1c[nH]cn1)[C@@H](C)O)[C@@H](C)O)C(=O)N[C@@H](CO)C(=O)N[C@@H](CCCCN)C(=O)N[C@@H](Cc1ccc(O)cc1)C(=O)N[C@@H](CC(C)C)C(=O)N[C@@H](CC(=O)O)C(=O)N[C@H]1CCC(=O)NCC(=O)NCCCC[C@@H](C(=O)N[C@@H](CC(=O)O)C(=O)N[C@@H](Cc2ccccc2)C(=O)N[C@H](C(=O)N[C@@H](CCC(N)=O)C(=O)N[C@@H](Cc2c[nH]c3ccccc23)C(=O)N[C@@H](CC(C)C)C(=O)N[C@@H](CCSC)C(=O)N[C@@H](CC(N)=O)C(=O)N[C@H](C(=O)N[C@@H](CCCCN)C(=O)O)[C@@H](C)O)C(C)C)NC(=O)[C@H](C)NC(=O)[C@H](CCCNC(=N)N)NC(=O)[C@H](CCCNC(=N)N)NC1=O)C(=O)O [Compound 35, H-HAibQGTFTSDZSKYLDERRAKDFVQWLMNTK-OH] | > 11.00 | > 11.00 |
| CCCCCCCCCCCCCCCCCC(=O)N[C@@H](CCC(=O)NCCOCCOCC(=O)NCCOCCOCC(=O)NCCCC[C@H](NC(=O)[C@H](CC(=O)O)NC(=O)[C@H](CO)NC(=O)[C@@H](NC(=O)[C@H](Cc1ccccc1)NC(=O)[C@@H](NC(=O)CNC(=O)[C@H](CCC(N)=O)NC(=O)C(C)(C)NC(=O)[C@@H](N)Cc1c[nH]cn1)[C@@H](C)O)[C@@H](C)O)C(=O)N[C@@H](CO)C(=O)N[C@@H](CCCCN)C(=O)N[C@@H](Cc1ccc(O)cc1)C(=O)N[C@@H](CC(C)C)C(=O)N[C@@H](CC(=O)O)C(=O)N[C@H]1CC(=O)NCC(=O)NCCCC[C@@H](C(=O)N[C@@H](CC(=O)O)C(=O)N[C@@H](Cc2ccccc2)C(=O)N[C@H](C(=O)N[C@@H](CCC(N)=O)C(=O)N[C@@H](Cc2c[nH]c3ccccc23)C(=O)N[C@@H](CC(C)C)C(=O)N[C@@H](CCSC)C(=O)N[C@@H](CC(N)=O)C(=O)N[C@H](C(=O)N[C@@H](CCCCN)C(=O)O)[C@@H](C)O)C(C)C)NC(=O)[C@H](C)NC(=O)[C@H](CCCNC(=N)N)NC(=O)[C@H](CCCNC(=N)N)NC1=O)C(=O)O [Compound 37, H-HAibQGTFTSDZSKYLDDRRAKDFVQWLMNTK-OH] | > 11.00 | > 11.00 |
| CCCCCCCCCCCCCCCCCC(=O)N[C@@H](CCC(=O)NCCOCCOCC(=O)NCCOCCOCC(=O)NCCCC[C@H](NC(=O)[C@H](CC(=O)O)NC(=O)[C@H](CO)NC(=O)[C@@H](NC(=O)[C@H](Cc1ccccc1)NC(=O)[C@@H](NC(=O)CNC(=O)[C@H](CCC(N)=O)NC(=O)C(C)(C)NC(=O)[C@@H](N)Cc1c[nH]cn1)[C@@H](C)O)[C@@H](C)O)C(=O)N[C@@H](CO)C(=O)N[C@@H](CCCCN)C(=O)N[C@@H](Cc1ccc(O)cc1)C(=O)N[C@@H](CC(C)C)C(=O)N[C@@H](CC(=O)O)C(=O)N[C@H]1CC(=O)N[C@@H](CC(C)C)C(=O)NCCCC[C@@H](C(=O)N[C@@H](CC(=O)O)C(=O)N[C@@H](Cc2ccccc2)C(=O)N[C@H](C(=O)N[C@@H](CCC(N)=O)C(=O)N[C@@H](Cc2c[nH]c3ccccc23)C(=O)N[C@@H](CC(C)C)C(=O)N[C@@H](CCSC)C(=O)N[C@@H](CC(N)=O)C(=O)N[C@H](C(=O)N[C@@H](CCCCN)C(=O)O)[C@@H](C)O)C(C)C)NC(=O)[C@H](C)NC(=O)[C@H](CCCNC(=N)N)NC(=O)[C@H](CCCNC(=N)N)NC1=O)C(=O)O [Compound 38, H-HAibQGTFTSDZSKYLDDRRAKDFVQWLMNTK-OH] | > 11.00 | > 11.00 |
| CSCC[C@H](NC(=O)[C@H](CC(C)C)NC(=O)[C@H](Cc1c[nH]c2ccccc12)NC(=O)[C@H](CCC(N)=O)NC(=O)[C@@H](NC(=O)[C@H](Cc1ccccc1)NC(=O)[C@H](CC(=O)O)NC(=O)[C@H](CCC(N)=O)NC(=O)[C@H](C)NC(=O)[C@H](CCCNC(=N)N)NC(=O)[C@H](CCCNC(=N)N)NC(=O)C(C)(C)NC(=O)[C@H](CC(=O)O)NC(=O)[C@H](CC(C)C)NC(=O)[C@H](Cc1ccc(O)cc1)NC(=O)[C@H](CCCCN)NC(=O)[C@H](CO)NC(=O)[C@H](CCCCN)NC(=O)[C@H](CC(=O)O)NC(=O)[C@H](CO)NC(=O)[C@@H](NC(=O)[C@H](Cc1ccccc1)NC(=O)[C@@H](NC(=O)CNC(=O)[C@H](CCC(N)=O)NC(=O)C(C)(C)NC(=O)[C@@H](N)Cc1c[nH]cn1)[C@@H](C)O)[C@@H](C)O)C(C)C)C(=O)N[C@@H](CC(N)=O)C(=O)N[C@H](C(=O)N[C@@H](CCCCN)C(=O)O)[C@@H](C)O [Compound 39] | < 9.00 | < 9.00 |
